Values quoted from earlier work in publication PMC12697872, “Rethinking the AI Paradigm for Solubility Prediction of Drug‑Like Compounds with Dual‐Perspective Modeling and Experimental Validation” (Advanced Science, 2025).

Key:
[1] = cited from earlier work; for LogS(mol/L): SC2-1 dataset (Second Solubility Challenge, tight subset), aqueous solubility; for Class: SC2-1 dataset, aqueous solubility class 0-6
[2] = experimental aqueous solubility as logS, sheet "DrugBank" of Supplement 2; ref DrugBank; cited from earlier work

Structure (SMILES) | LogS(mol/L) [1] | Class [1] | ex_logS [2]
CC1=C(C(=O)O)N2C(=O)[C@@H](NC(=O)[C@H](N)C3=CCC=CC3)[C@H]2SC1 | -1.18 mol/L | 3 (Sparingly soluble (3)) | –
CCOc1nc2cccc(C(=O)OC(C)OC(=O)OC3CCCCC3)c2n1Cc1ccc(-c2ccccc2-c2nn[nH]n2)cc1 (stereo not drawn) | -6.79 mol/L | 6 (Practically insoluble or insoluble (6)) | –
CC(=O)OCC(=O)[C@@]1(OC(C)=O)[C@@H](C)C[C@H]2[C@@H]3C[C@H](F)C4=CC(=O)C=C[C@]4(C)[C@@]3(F)[C@@H](O)C[C@@]21C | -4.82 mol/L | 6 (Practically insoluble or insoluble (6)) | –
CC(=O)S[C@@H]1CC2=CC(=O)CC[C@]2(C)[C@H]2CC[C@@]3(C)[C@@H](CC[C@@]34CCC(=O)O4)[C@H]12 | -4.21 mol/L | 6 (Practically insoluble or insoluble (6)) | –
CCn1cc(C(=O)O)c(=O)c2cc(F)c(N3CCNCC3)cc21 | -2.88 mol/L | 5 (Very slightly soluble (5)) | –
CN1CCN(c2cc3c(cc2F)c(=O)c(C(=O)O)cn3-c2ccc(F)cc2)CC1 | -3.83 mol/L | 6 (Practically insoluble or insoluble (6)) | –
CO/N=C(\C(=O)N[C@@H]1C(=O)N2C(C(=O)O)=C(CSc3nnnn3C)CS[C@H]12)c1csc(N)n1 | -3.27 mol/L | 5 (Very slightly soluble (5)) | –
COc1cc(N)c(Cl)cc1C(=O)NC1CCN(CCCOc2ccc(F)cc2)CC1OC (stereo not drawn) | -6.78 mol/L | 6 (Practically insoluble or insoluble (6)) | –
COc1cc([C@@H]2c3cc4c(cc3[C@@H](O[C@@H]3O[C@@H]5CO[C@@H](C)O[C@H]5[C@H](O)[C@H]3O)C3COC(=O)[C@@H]32)OCO4)cc(OC)c1O (stereo partly drawn) | -3.6 mol/L | 5 (Very slightly soluble (5)) | –
COc1ccc2c(c1OC)C(=O)O[C@@H]2[C@H]1c2c(cc3c(c2OC)OCO3)CCN1C | -4.48 mol/L | 6 (Practically insoluble or insoluble (6)) | –
COc1ccc2c(c1)c(CC(=O)O)c(C)n2C(=O)c1ccc(Cl)cc1 | -5.48 mol/L | 6 (Practically insoluble or insoluble (6)) | –
COc1ccc([C@@H]2Sc3ccccc3N(CCN(C)C)C(=O)[C@@H]2OC(C)=O)cc1 | -3.02 mol/L | 5 (Very slightly soluble (5)) | –
CS(=O)(=O)c1ccc(C2=C(c3ccccc3)C(=O)OC2)cc1 | -4.61 mol/L | 6 (Practically insoluble or insoluble (6)) | –
C/C=C/C1=C(C(=O)O)N2C(=O)[C@@H](NC(=O)[C@H](N)c3ccc(O)cc3)[C@H]2SC1 | -1.68 mol/L | 4 (Slightly soluble (4)) | –
C[C@]12C[C@H](O)[C@H]3[C@@H](CCC4=CC(=O)CC[C@@]43C)[C@@H]1CC[C@@H]2C(=O)CO | -3.29 mol/L | 5 (Very slightly soluble (5)) | –
C[C@@H]1C[C@H]2[C@@H]3CCC4=CC(=O)C=C[C@]4(C)[C@@]3(F)[C@@H](O)C[C@]2(C)[C@@]1(O)C(=O)CO | -3.56 mol/L | 5 (Very slightly soluble (5)) | –
Cc1c(O)cccc1C(=O)N[C@@H](CSc1ccccc1)[C@H](O)CN1C[C@H]2CCCC[C@H]2C[C@H]1C(=O)NC(C)(C)C | -6.21 mol/L | 6 (Practically insoluble or insoluble (6)) | –
Cc1ccc(-c2cc(C(F)(F)F)nn2-c2ccc(S(N)(=O)=O)cc2)cc1 | -5.89 mol/L | 6 (Practically insoluble or insoluble (6)) | –

Structure (SMILES) | LogS(mol/L) [1] | Class [1] | ex_logS [2]
Cc1ccccc1N1C(=O)c2cc(S(N)(=O)=O)c(Cl)cc2NC1C (stereo not drawn) | -3.88 mol/L | 6 (Practically insoluble or insoluble (6)) | –
NS(=O)(=O)c1cc2c(cc1Cl)NC(CSCc1ccccc1)=NS2(=O)=O | -4.84 mol/L | 6 (Practically insoluble or insoluble (6)) | –
Nc1nc(=O)c2nc(CNc3ccc(C(=O)N[C@@H](CCC(=O)O)C(=O)O)cc3)cnc2[nH]1 | -5.96 mol/L | 6 (Practically insoluble or insoluble (6)) | –
O=C1CCc2ccc(OCCCCN3CCN(c4cccc(Cl)c4Cl)CC3)cc2N1 | -6.64 mol/L | 6 (Practically insoluble or insoluble (6)) | –
O=C1C(O)=C(C2CCC(c3ccc(Cl)cc3)CC2)C(=O)c2ccccc21 (stereo not drawn) | -6.07 mol/L | 6 (Practically insoluble or insoluble (6)) | –
O=C(CCCN1CCC(O)(c2ccc(Cl)cc2)CC1)c1ccc(F)cc1 | -5.71 mol/L | 6 (Practically insoluble or insoluble (6)) | –
CC(=O)N1CCN(c2ccc(OC[C@H]3CO[C@](Cn4ccnc4)(c4ccc(Cl)cc4Cl)O3)cc2)CC1 (racemic) | -5.47 mol/L | 6 (Practically insoluble or insoluble (6)) | –
CC1=NS(=O)(=O)c2cc(Cl)ccc2N1 [CC1=NS(=O)(=O)c2cc(Cl)ccc2N1] | -3.43 mol/L | 6 (Practically insoluble or insoluble (6)) | –
CC(=O)Nc1nnc(S(N)(=O)=O)s1 [CC(=O)Nc1nnc(S(N)(=O)=O)s1] | -2.38 mol/L | 5 (Very slightly soluble (5)) | –
CC(=O)Oc1ccccc1C(=O)O [CC(=O)Oc1ccccc1C(=O)O] | -1.67 mol/L | 4 (Slightly soluble (4)) | –
CC(C(=O)O)c1ccc(-c2ccccc2)c(F)c1 (stereo not drawn) [CC(C(=O)O)c1ccc(-c2ccccc2)c(F)c1] | -4.34 mol/L | 6 (Practically insoluble or insoluble (6)) | –
CC(C(=O)O)c1ccc(N2Cc3ccccc3C2=O)cc1 (stereo not drawn) [CC(C(=O)O)c1ccc(N2Cc3ccccc3C2=O)cc1] | -4.65 mol/L | 6 (Practically insoluble or insoluble (6)) | –
CC(C)NCC(O)COc1cccc2[nH]ccc12 (stereo not drawn) [CC(C)NCC(O)COc1cccc2[nH]ccc12] | -3.75 mol/L | 6 (Practically insoluble or insoluble (6)) | –
CC(CN1c2ccccc2Sc2ccccc21)N(C)C (stereo not drawn) [CC(CN1c2ccccc2Sc2ccccc21)N(C)C] | -4.38 mol/L | 6 (Practically insoluble or insoluble (6)) | –
CCC1(c2ccccc2)C(=O)NCNC1=O [CCC1(c2ccccc2)C(=O)NCNC1=O] | -2.53 mol/L | 5 (Very slightly soluble (5)) | –
CCC(C)C1(CC)C(=O)NC(=O)NC1=O (stereo not drawn) [CCC(C)C1(CC)C(=O)NC(=O)NC1=O] | -2.22 mol/L | 4 (Slightly soluble (4)) | –
COc1cc(C(=O)NCc2ccc(OCCN(C)C)cc2)cc(OC)c1OC [Trimethobenzamide] | – | – | -3.987
